Where no end group is shown, it is not given here.

In series [1] the test system is fibroblasts and keratinocytes in culture. The series is described as follows: Peptide applied to fibroblasts and keratinocytes in culture, HPLC analysis of the culture medium. Type of series: cell-based, human. The protocol: (§1) Human fibroblasts and keratinocytes were cultivated during 24 hours at 37° C. and 5% of CO2. For this period, the cells will release many degradation enzymes in the culture medium. Thereafter, the culture medium is removed to be put in the presence of the peptide.
A test is carried out by applying the peptide to the fibroblasts and to the keratinocytes in culture.
This assumption is then consolidated by the tests of effectiveness exposed in the […]

A short description of series [2]: Stability of the peptide in culture medium removed from human fibroblasts and keratinocytes (released degradation enzymes), HPLC. The series is classed as in vitro ADME. As to conditions: medium from human fibroblasts and keratinocytes cultivated 24 hours at 37° C.; after 24 hours with peptide. As to the method: (§2) The Peptide (Gly-Pro-Gln)2-NH2 (SEQ ID NO: 2) was analyzed with a concentration of 10^-4 M by HPLC on a column of the C18 type, and with a linear gradient water/TFA 0.1%—acetonitril/TFA 0.1%.
as §1

The nature of series [3]: Stability of the peptide by HPLC at various temperatures. As to conditions: 10^-4 M. The series is classed as physicochemical. The protocol: as §2
The test system of another series is keratinocytes. The series is described as follows: Adhesion of keratinocytes to pre-treated 96 wells micro-plates (MTT, OD reading). Type of series: cell-based. The protocol:
The study is carried out in 96 wells micro-plates on keratinocytes cultured in an incubator at 37° C. and 5% of CO2. The wells of these plates are pre-treated, for 12 hours, in different ways; four conditions have been realized: • Condition A: negative control, not containing peptide; • Condition B: incubated with various peptides, made up from 3 to 25 amino acids, with a concentration of 35 ppm; • Condition C: incubated with collagen of the type I with a concentration of 60 ppm; • Condition D: incubated with the peptide of sequence (Gly-Pro-Gln)2-NH2 (SEQ ID NO: 2) to a concentration of 5 ppm.
After 3 hours of contact with the keratinocytes, the wells are completely filled with medium, hermetically closed, turned over and agitated on a three-dimensional agitator during 20 minutes. Then the plates are emptied and the remaining medium is aspired. Then, 100 μl of MTT with 1 mg/ml are added by wells and are left for 3 hours at 37° C. and 5% CO2. The solution is finally withdrawn, then 100 μl of DMSO is added. A reading of the OD is made at 560 nm against 630 nm.
The OD is proportional to the quantity of viable cells, i.e. which adhered to the micro-plates.

Regarding GPQGPQ-NH2 [(Gly-Pro-Gln)2-NH2], in series [1], the “peptide concentration in the culture medium” value is “decreases quickly”. Besides, the “degradation of the peptide in cell-conditioned culture medium” value in series [2] is recorded as “almost no degradation”. Besides, the “decomposition of peptide (HPLC)” value in series [3] (after 24 hours at 25° C., 37° C. and 60° C.) is on record as “no decomposition”. Also, the “peptide degradation (HPLC)” value in series [3] (after 8 days at 25° C.) was “no peptide degradation”. The “cell adhesion (in words)” value with keratinocytes (5 ppm, after 3 hours of contact with the keratinocytes, compared with collagen of the type I at 60 ppm) is recorded as “good cell adhesion, similar to that of the collagen of the type I”. Besides, the “O.D. (proportional to quantity of viable adhered cells)” value with keratinocytes (Condition D: wells pre-treated 12 hours with 5 ppm, 3 hours of contact with keratinocytes, OD 560 nm against 630 nm) amounted to 0.620.

These data come from US7211269B2, “Cosmetic or dermatological use of peptides for promoting adhesion between skin cells” (Societe d' Extraction de Principes Actifs S.A., priority 2001, dated 2007).
